Reference: US20250051332A1 (priority 2022, published 2025)

Legend:
[1] = biological target: HERG (Homo sapiens, UniProt Q12809); assay: PDSP radioligand displacement binding; details: average of three independent trials
[2] = biological target: T1, μOR (Homo sapiens, UniProt P35372); assay: cell-based; assay type: cell-based
T1 construct: host or cells: CHO-K1

[3] = biological target: T2, Alpha2C (Homo sapiens, UniProt P18825); assay: PDSP radioligand displacement binding; details: average of three independent trials
T2 sequence (P18825 1-462): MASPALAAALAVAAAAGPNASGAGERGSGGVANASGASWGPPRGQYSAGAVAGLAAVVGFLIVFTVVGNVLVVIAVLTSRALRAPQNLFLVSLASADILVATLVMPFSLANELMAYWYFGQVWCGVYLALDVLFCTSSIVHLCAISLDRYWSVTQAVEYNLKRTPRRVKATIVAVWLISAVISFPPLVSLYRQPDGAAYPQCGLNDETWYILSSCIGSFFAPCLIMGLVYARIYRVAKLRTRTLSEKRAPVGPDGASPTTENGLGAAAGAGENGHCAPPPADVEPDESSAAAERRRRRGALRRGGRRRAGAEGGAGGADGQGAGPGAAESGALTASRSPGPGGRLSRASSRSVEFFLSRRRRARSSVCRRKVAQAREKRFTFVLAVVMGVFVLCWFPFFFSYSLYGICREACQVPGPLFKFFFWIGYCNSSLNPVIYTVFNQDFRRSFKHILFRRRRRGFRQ

[4] = biological target: Alpha7 (Homo sapiens, UniProt P36544); assay: PDSP radioligand displacement binding; details: average of three independent trials
[5] = biological target: T3, Alpha1A (Homo sapiens, UniProt P35348); assay: PDSP radioligand displacement binding; details: average of three independent trials
T3 sequence (P35348 1-466): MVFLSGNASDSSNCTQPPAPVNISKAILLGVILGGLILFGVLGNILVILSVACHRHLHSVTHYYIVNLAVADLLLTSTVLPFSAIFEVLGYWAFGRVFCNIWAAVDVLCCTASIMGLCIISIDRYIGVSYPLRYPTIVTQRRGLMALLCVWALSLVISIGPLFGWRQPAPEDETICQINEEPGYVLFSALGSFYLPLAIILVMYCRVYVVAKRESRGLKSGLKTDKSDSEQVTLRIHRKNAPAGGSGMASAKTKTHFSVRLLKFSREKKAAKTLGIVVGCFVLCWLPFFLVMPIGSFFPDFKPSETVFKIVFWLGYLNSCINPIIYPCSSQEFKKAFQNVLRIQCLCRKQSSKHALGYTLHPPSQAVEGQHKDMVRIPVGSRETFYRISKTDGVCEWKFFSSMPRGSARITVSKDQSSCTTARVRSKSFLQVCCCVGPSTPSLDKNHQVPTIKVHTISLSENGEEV

[6] = biological target: T4, Alpha1D (Homo sapiens, UniProt P25100); assay: PDSP radioligand displacement binding; details: average of three independent trials
T4 sequence (P25100 1-572): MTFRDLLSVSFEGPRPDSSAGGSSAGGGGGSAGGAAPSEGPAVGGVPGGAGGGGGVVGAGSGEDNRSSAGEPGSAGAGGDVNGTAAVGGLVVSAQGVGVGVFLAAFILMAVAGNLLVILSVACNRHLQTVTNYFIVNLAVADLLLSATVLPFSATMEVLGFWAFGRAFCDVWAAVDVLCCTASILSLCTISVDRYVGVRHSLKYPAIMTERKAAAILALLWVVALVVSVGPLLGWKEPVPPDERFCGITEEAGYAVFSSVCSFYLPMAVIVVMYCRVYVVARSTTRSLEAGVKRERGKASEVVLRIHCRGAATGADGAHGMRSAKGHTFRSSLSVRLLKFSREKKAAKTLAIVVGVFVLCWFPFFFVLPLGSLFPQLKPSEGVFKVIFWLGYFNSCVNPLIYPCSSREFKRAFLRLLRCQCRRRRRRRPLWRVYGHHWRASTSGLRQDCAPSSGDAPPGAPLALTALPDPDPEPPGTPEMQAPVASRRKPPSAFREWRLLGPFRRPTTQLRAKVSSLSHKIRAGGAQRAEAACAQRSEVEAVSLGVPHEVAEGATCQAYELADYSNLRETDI

[7] = biological target: NET (Homo sapiens, UniProt P23975); assay: PDSP radioligand displacement binding; details: average of three independent trials
[8] = biological target: T5, Alpha1B (Homo sapiens, UniProt P35368); assay: PDSP radioligand displacement binding; details: average of three independent trials
T5 sequence (P35368 1-520): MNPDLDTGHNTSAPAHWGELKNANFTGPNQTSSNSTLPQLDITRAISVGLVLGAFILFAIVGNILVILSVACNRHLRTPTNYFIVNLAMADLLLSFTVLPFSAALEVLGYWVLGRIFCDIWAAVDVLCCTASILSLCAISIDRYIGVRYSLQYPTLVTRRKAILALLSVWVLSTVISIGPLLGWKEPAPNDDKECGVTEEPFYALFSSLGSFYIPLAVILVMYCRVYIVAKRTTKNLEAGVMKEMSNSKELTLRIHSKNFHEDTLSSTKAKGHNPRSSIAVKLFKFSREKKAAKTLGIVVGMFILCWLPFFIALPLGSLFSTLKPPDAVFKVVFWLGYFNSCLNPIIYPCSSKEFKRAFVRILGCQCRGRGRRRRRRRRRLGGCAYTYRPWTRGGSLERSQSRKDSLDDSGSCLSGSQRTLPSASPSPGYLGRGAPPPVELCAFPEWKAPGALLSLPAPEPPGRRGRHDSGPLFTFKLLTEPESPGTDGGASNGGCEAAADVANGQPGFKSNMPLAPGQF

[9] = biological target: 5-HT5A (Homo sapiens, UniProt P47898); assay: PDSP radioligand displacement binding; details: average of three independent trials
[10] = biological target: T6, Alpha2A (Homo sapiens, UniProt P08913); assay: PDSP radioligand displacement binding; details: average of three independent trials
T6 sequence (P08913 1-465): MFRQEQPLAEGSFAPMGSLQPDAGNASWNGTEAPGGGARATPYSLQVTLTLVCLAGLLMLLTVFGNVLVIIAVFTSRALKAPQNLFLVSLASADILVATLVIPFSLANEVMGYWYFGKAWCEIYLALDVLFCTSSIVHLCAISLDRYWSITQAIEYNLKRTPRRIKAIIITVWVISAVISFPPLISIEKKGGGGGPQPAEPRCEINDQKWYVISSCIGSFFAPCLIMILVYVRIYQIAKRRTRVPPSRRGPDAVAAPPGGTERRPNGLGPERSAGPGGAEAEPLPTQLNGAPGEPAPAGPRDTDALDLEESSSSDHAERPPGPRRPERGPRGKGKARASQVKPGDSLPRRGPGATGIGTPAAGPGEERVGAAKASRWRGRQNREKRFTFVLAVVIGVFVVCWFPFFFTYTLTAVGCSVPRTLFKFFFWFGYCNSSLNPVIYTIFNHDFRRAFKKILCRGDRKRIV

T1 sequence (P35372 whole entry): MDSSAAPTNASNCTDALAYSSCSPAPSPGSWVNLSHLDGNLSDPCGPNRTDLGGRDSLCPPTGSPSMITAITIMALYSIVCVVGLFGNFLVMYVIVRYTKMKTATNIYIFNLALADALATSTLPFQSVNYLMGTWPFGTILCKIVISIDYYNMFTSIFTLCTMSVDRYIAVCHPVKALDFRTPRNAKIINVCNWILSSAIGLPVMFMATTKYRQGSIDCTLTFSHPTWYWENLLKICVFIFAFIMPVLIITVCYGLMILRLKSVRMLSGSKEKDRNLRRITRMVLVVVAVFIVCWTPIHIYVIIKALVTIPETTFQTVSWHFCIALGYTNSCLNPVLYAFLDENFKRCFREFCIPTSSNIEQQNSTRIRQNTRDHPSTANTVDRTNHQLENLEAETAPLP
Chain of NET (P23975 whole entry): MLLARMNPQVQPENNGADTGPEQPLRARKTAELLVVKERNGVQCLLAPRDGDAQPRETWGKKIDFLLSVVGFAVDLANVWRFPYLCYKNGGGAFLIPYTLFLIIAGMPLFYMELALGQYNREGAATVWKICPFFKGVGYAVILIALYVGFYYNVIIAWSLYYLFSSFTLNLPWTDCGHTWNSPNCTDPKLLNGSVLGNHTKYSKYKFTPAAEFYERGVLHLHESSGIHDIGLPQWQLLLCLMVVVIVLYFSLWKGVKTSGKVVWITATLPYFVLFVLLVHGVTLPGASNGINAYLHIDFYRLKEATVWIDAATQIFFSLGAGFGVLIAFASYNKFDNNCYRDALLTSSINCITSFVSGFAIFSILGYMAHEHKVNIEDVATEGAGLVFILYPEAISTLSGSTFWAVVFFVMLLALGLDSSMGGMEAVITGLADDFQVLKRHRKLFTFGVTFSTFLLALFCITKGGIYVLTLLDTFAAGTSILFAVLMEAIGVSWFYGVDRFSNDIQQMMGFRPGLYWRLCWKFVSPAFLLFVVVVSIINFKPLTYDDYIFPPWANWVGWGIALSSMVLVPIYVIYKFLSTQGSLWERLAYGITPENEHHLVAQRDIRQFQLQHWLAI
Chain of Alpha7 (P36544 23-502): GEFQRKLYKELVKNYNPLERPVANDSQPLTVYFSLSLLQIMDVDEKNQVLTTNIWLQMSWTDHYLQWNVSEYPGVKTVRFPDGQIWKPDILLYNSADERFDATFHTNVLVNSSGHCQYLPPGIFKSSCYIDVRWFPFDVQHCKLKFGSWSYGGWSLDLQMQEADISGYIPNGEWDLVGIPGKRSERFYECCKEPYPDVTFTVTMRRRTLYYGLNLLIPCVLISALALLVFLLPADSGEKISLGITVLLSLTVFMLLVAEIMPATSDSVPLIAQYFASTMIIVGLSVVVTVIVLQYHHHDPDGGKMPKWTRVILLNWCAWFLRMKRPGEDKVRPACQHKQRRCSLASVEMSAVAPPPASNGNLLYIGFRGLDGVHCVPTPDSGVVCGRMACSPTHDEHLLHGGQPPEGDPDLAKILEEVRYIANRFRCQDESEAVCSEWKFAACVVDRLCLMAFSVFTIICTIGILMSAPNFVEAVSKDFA
Chain of HERG (Q12809 whole entry): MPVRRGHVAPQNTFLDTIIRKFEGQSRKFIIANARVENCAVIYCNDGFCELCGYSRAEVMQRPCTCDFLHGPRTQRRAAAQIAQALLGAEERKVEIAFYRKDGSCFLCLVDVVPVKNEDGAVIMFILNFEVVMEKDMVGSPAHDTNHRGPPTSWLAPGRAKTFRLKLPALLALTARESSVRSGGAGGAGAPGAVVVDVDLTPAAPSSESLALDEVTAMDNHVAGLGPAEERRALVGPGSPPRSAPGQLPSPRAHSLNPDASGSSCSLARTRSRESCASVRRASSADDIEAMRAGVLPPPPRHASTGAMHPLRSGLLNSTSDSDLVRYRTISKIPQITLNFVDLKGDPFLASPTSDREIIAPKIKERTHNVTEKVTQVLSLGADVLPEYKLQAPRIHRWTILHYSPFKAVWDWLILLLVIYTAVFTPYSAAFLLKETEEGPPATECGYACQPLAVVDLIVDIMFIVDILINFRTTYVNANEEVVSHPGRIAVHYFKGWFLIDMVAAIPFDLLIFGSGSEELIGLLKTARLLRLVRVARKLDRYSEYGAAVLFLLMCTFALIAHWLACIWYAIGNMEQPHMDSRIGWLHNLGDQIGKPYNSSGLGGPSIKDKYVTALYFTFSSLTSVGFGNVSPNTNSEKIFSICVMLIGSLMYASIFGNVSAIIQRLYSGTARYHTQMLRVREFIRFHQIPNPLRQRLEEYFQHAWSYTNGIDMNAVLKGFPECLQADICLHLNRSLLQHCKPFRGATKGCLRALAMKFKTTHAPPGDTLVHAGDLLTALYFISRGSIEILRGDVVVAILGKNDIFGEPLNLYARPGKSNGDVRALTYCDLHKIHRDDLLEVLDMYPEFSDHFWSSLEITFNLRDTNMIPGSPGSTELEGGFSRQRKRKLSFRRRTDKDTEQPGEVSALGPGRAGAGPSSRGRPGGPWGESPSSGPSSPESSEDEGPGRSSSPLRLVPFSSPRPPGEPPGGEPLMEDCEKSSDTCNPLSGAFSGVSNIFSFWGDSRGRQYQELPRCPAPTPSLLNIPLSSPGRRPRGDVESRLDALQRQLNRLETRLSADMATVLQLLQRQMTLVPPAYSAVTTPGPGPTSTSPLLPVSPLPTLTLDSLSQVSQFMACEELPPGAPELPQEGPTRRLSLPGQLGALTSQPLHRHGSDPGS
Chain of 5-HT5A (P47898 whole entry, species assumed): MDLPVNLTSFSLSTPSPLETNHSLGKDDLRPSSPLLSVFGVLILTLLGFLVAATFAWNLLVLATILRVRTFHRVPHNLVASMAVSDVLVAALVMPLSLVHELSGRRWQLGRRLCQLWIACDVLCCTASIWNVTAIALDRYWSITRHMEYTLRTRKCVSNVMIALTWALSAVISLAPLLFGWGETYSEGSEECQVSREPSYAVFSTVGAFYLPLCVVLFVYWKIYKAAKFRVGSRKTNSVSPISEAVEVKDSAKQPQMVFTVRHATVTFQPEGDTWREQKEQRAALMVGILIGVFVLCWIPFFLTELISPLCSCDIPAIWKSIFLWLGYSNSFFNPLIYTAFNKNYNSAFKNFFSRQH

| SMILES | Ki [1] | agonist activity at the μOR [2] | μOR cAMP inhibition Emax ± SEM (%) [2] | μOR cAMP inhibition pEC50 ± SEM [2] | EC50 ([2]; read-out: μOR cAMP inhibition EC50) | Ki [3] | Ki [4] | Ki [5] | Ki [6] | Ki [7] | Ki [8] | Ki [9] | Ki [10] | Ki (nM) at Alpha1D [6] | Ki (nM) at NET [7] |
| --- | --- | --- | --- | --- | --- | --- | --- | --- | --- | --- | --- | --- | --- | --- | --- |
| C/C=C1/CN2CC[C@]34C(=C(C(=O)OC)[C@H]1C[C@H]23)Nc1ccc(I)cc14 [Compound 3, 10-Iodoakuammicine] | 1100 nM | only weakly activated the μOR | <10% | 4.4 ± 1.9 | 41000 nM | 2860 nM | 5490 nM | 883 nM | 1140 nM | 3440 nM | 2020 nM | 829 nM | 732 nM |  |  |
| C/C=C1/CN2CC[C@]34C(=C(C(=O)OC)[C@H]1C[C@H]23)Nc1ccc(Br)cc14 [Compound 2, 10-Bromoakuammicine] | 1340 nM | only weakly activated the μOR |  |  |  | 2910 nM | 7000 nM | 1000 nM |  |  | 2880 nM | 721 nM | > 10000 nM | — (“—” indicates compound produced less than 50% displacement of radioligand in primary binding screen at 10 μM.) | — (“—” indicates compound produced less than 50% displacement of radioligand in primary binding screen at 10 μM.) |
